Data: PubChem BioAssay (NCI)
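Test compounds were applied to cells in 96-well plates for 48 hours at 5 doses. GI50 = concentration required for 50% inhibition of growth. The concentration for full growth arrest is given as TGI.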

Assays:
Experiment in all cases: inhibition of tumour cell growth, NCI panel, 48 h
K-562 leukemia = test system: K-562 leukemia
ACHN renal = test system: ACHN renal
T-47D breast = test system: T-47D breast
OVCAR-3 ovarian = test system: OVCAR-3 ovarian
MDA-MB-231 breast = test system: MDA-MB-231 breast
COLO 205 colon = test system: COLO 205 colon
786-0 renal = test system: 786-0 renal
RPMI-8226 leukemia = test system: RPMI-8226 leukemia
EKVX NSCLC = test system: EKVX NSCLC
CCRF-CEM leukemia = test system: CCRF-CEM leukemia
RXF 393 renal = test system: RXF 393 renal
NCI-H460 lung = test system: NCI-H460 lung
OVCAR-5 ovarian = test system: OVCAR-5 ovarian
PC-3 prostate = test system: PC-3 prostate
NCI/ADR-RES ovarian = test system: NCI/ADR-RES ovarian
SNB-19 CNS = test system: SNB-19 CNS
HOP-62 NSCLC = test system: HOP-62 NSCLC
A549 NSCLC = test system: A549 NSCLC
SW-620 colon = test system: SW-620 colon
SK-OV-3 ovarian = test system: SK-OV-3 ovarian
HCT-15 colon = test system: HCT-15 colon
HS 578T breast = test system: HS 578T breast
TK-10 renal = test system: TK-10 renal
NCI-H522 lung = test system: NCI-H522 lung
MOLT-4 leukemia = test system: MOLT-4 leukemia
HOP-92 NSCLC = test system: HOP-92 NSCLC
OVCAR-4 ovarian = test system: OVCAR-4 ovarian
MDA-N = test system: MDA-N
SF-539 CNS = test system: SF-539 CNS
IGROV1 ovarian = test system: IGROV1 ovarian
MALME-3M melanoma = test system: MALME-3M melanoma
A498 renal = test system: A498 renal
LOX IMVI melanoma = test system: LOX IMVI melanoma
SK-MEL-2 melanoma = test system: SK-MEL-2 melanoma
SN12C renal = test system: SN12C renal
SF-268 CNS = test system: SF-268 CNS
UACC-257 melanoma = test system: UACC-257 melanoma
UO-31 renal = test system: UO-31 renal
SF-295 CNS = test system: SF-295 CNS
DU-145 prostate = test system: DU-145 prostate
OVCAR-8 ovarian = test system: OVCAR-8 ovarian
SK-MEL-28 melanoma = test system: SK-MEL-28 melanoma
NCI-H23 lung = test system: NCI-H23 lung
HCT-116 colon = test system: HCT-116 colon
HL-60(TB) leukemia = test system: HL-60(TB) leukemia
MDA-MB-435 = test system: MDA-MB-435
MCF7 breast = test system: MCF7 breast
SNB-75 CNS = test system: SNB-75 CNS
KM12 colon = test system: KM12 colon
SK-MEL-5 melanoma = test system: SK-MEL-5 melanoma
U251 CNS = test system: U251 CNS
HT29 colon = test system: HT29 colon
NCI-H226 lung = test system: NCI-H226 lung
CAKI-1 renal = test system: CAKI-1 renal
BT-549 breast = test system: BT-549 breast
M14 melanoma = test system: M14 melanoma
SR leukemia = test system: SR leukemia

What does the source list for `CCC[CH2][Sn]([CH2]CCC)([CH2]CCC)/[C](=C/[Si](C)(C)c1ccccc1)c1ccc2c(c1)OCO2`?
GI50 (K-562 leukemia): 22.9 µM; TGI (K-562 leukemia): 73.9 µM; GI50 (ACHN renal): 18.4 µM; TGI (ACHN renal): 36.2 µM; GI50 (T-47D breast): 24.6 µM; TGI (T-47D breast): 62 µM; GI50 (OVCAR-3 ovarian): 19.8 µM; TGI (OVCAR-3 ovarian): 40.2 µM; GI50 (MDA-MB-231 breast): 14.8 µM; TGI (MDA-MB-231 breast): 32.8 µM; GI50 (COLO 205 colon): 18.7 µM; TGI (COLO 205 colon): 39 µM; GI50 (786-0 renal): 16 µM; TGI (786-0 renal): 30.9 µM; GI50 (RPMI-8226 leukemia): 20.7 µM; TGI (RPMI-8226 leukemia): 77.8 µM; GI50 (EKVX NSCLC): 15.2 µM; TGI (EKVX NSCLC): 50.7 µM; GI50 (CCRF-CEM leukemia): 12 µM; TGI (CCRF-CEM leukemia): 73.2 µM; GI50 (RXF 393 renal): 22.1 µM; TGI (RXF 393 renal): 41.2 µM; GI50 (NCI-H460 lung): 21.3 µM; TGI (NCI-H460 lung): 52.3 µM; GI50 (OVCAR-5 ovarian): 19 µM; TGI (OVCAR-5 ovarian): 44 µM; GI50 (PC-3 prostate): 31.4 µM; TGI (PC-3 prostate): > 100 µM; GI50 (NCI/ADR-RES ovarian): 26.2 µM; TGI (NCI/ADR-RES ovarian): 86.3 µM; GI50 (SNB-19 CNS): 21.3 µM; TGI (SNB-19 CNS): 49.7 µM; GI50 (HOP-62 NSCLC): 23.7 µM; TGI (HOP-62 NSCLC): 50.6 µM; GI50 (A549 NSCLC): 25.2 µM; TGI (A549 NSCLC): 82.9 µM; GI50 (SW-620 colon): 20.9 µM; TGI (SW-620 colon): 59.3 µM; GI50 (SK-OV-3 ovarian): 18.5 µM; TGI (SK-OV-3 ovarian): 41 µM; GI50 (HCT-15 colon): 20.5 µM; TGI (HCT-15 colon): 51.8 µM; GI50 (HS 578T breast): 42.6 µM; TGI (HS 578T breast): > 100 µM; GI50 (TK-10 renal): 33.8 µM; TGI (TK-10 renal): 99.1 µM; GI50 (NCI-H522 lung): 9.71 µM; TGI (NCI-H522 lung): > 100 µM; GI50 (MOLT-4 leukemia): 17.4 µM; TGI (MOLT-4 leukemia): 83.3 µM; GI50 (HOP-92 NSCLC): 11.4 µM; TGI (HOP-92 NSCLC): 29.4 µM; GI50 (OVCAR-4 ovarian): 14.9 µM; TGI (OVCAR-4 ovarian): 36.6 µM; GI50 (MDA-N): 19.5 µM; TGI (MDA-N): 40.3 µM; GI50 (SF-539 CNS): 36 µM; TGI (SF-539 CNS): > 100 µM; GI50 (IGROV1 ovarian): 16.9 µM; TGI (IGROV1 ovarian): 37.9 µM; GI50 (MALME-3M melanoma): 3.2 µM; TGI (MALME-3M melanoma): 15 µM; GI50 (A498 renal): 30.5 µM; TGI (A498 renal): 70.6 µM; GI50 (LOX IMVI melanoma): 21.3 µM; TGI (LOX IMVI melanoma): 66.7 µM; GI50 (SK-MEL-2 melanoma): 23.5 µM; TGI (SK-MEL-2 melanoma): 63.5 µM; GI50 (SN12C renal): 19.1 µM; TGI (SN12C renal): 39 µM; GI50 (SF-268 CNS): 10.7 µM; TGI (SF-268 CNS): 98.4 µM; GI50 (UACC-257 melanoma): 22.4 µM; TGI (UACC-257 melanoma): 58.7 µM; GI50 (UO-31 renal): 18.6 µM; TGI (UO-31 renal): 33.6 µM; GI50 (SF-295 CNS): 26.8 µM; TGI (SF-295 CNS): 49.6 µM; GI50 (DU-145 prostate): 21.7 µM; TGI (DU-145 prostate): 48.6 µM; GI50 (OVCAR-8 ovarian): 19.1 µM; TGI (OVCAR-8 ovarian): 37.9 µM; GI50 (SK-MEL-28 melanoma): 16.2 µM; TGI (SK-MEL-28 melanoma): 33.4 µM; GI50 (NCI-H23 lung): 25.6 µM; TGI (NCI-H23 lung): 92.9 µM; GI50 (HCT-116 colon): 17.9 µM; TGI (HCT-116 colon): 41 µM; GI50 (HL-60(TB) leukemia): 15.8 µM; TGI (HL-60(TB) leukemia): 35.4 µM; GI50 (MDA-MB-435): 15.7 µM; TGI (MDA-MB-435): 31.3 µM; GI50 (MCF7 breast): 20.7 µM; TGI (MCF7 breast): 53.7 µM; GI50 (SNB-75 CNS): 58.5 µM; TGI (SNB-75 CNS): > 100 µM; GI50 (KM12 colon): 16.2 µM; TGI (KM12 colon): 34.1 µM; GI50 (SK-MEL-5 melanoma): 15.8 µM; TGI (SK-MEL-5 melanoma): 30.1 µM; GI50 (U251 CNS): 18.8 µM; TGI (U251 CNS): 40 µM; GI50 (HT29 colon): 19.2 µM; TGI (HT29 colon): 55.3 µM; GI50 (NCI-H226 lung): 19.9 µM; TGI (NCI-H226 lung): 42.9 µM; GI50 (CAKI-1 renal): 16 µM; TGI (CAKI-1 renal): 48.2 µM; GI50 (BT-549 breast): 19.1 µM; TGI (BT-549 breast): 44.3 µM; GI50 (M14 melanoma): 16.8 µM; TGI (M14 melanoma): 35.2 µM; GI50 (SR leukemia): 8.61 µM; TGI (SR leukemia): 63.9 µM
